Laboratory results taken from US10927098B2, “Hydroxyalkyl-substituted triazole derivatives and uses thereof” (Bayer Pharma Aktiengesellschaft, priority 2016, dated 2021).

Assays:
human V1a receptor = target: T1, human V1a receptor (Homo sapiens, UniProt P37288); experiment: Cellular in vitro assay for determining vasopressin receptor activity, V1a receptor cell line (aequorin luminescence); type: cell-based; details: for IC50: CHO cell line transfected with the human V1a receptor, [Arg8]-vasopressin at EC50 concentration, read-out: IC50 hV1a; for ratio IC50 hV2/hV1a: ratio of the IC50 values at human V2 and human V1a receptor
T1 construct: expressed in transfected cells; host or cells: CHO K1 (ATCC), also stably transfected with a modified aequorin
T1 sequence (P37288 whole entry): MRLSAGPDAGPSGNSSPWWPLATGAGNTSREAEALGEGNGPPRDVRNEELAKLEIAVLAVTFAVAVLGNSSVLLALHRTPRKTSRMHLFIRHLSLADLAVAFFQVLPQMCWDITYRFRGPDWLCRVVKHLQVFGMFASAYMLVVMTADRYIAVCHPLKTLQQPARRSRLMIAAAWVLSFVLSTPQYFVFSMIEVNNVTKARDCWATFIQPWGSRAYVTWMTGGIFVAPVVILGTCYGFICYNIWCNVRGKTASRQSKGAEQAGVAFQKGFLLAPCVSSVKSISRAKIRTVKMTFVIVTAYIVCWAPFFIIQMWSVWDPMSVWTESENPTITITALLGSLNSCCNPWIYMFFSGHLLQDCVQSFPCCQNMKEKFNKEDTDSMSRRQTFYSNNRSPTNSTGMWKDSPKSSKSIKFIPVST
Protocol: (§1) B-1. Cellular In Vitro Assay for Determining Vasopressin Receptor Activity
(§2) The identification of agonists and antagonists of the V1a and V2 vasopressin receptors from humans, rats and dogs as well as the quantification of the activity of the compounds of the invention is carried out using recombinant cell lines. These cell lines originally derive from a hamster's ovary epithelial cell (Chinese Hamster Ovary, CHO K1, ATCC: American Type Culture Collection, Manassas, Va. 20108, USA). The test cell lines constitutively express the human, rat or dog V1a or V2 receptors. In case of the Gαq-coupled V1a receptors, cells are also stably transfected with a modified form of the calcium-sensitive photoproteins aequorin (human and rat V1a) or obelin (dog Via), which, after reconstitution with the cofactor coelenterazine, emit light when there are increases in free calcium concentrations [Rizzuto R, Simpson A W, Brini M, Pozzan T, Nature 358, 325-327 (1992); Illarionov B A, Bondar V S, Illarionova V A, Vysotski E S, Gene 153 (2), 273-274 (1995)]. The resulting vasopressin receptor cells react to stimulation of the recombinantly expressed V1a receptors by intracellular release of calcium ions, which can be quantified by the resulting photoprotein luminescence. The Gs-coupled V2 receptors are stably transfected into cell lines expressing the gene for firefly luciferase under control of a CRE-responsible promoter. Activation of V2 receptors induces the activation of the CRE-responsive promoter via cAMP increase, thereby inducing the expression of firefly luciferase. The light emitted by photoproteins of V1a cell lines as well as the light emitted by firefly luciferase of V2 cell lines corresponds to the activation or inhibition of the respective vasopressin receptor. The bioluminescence of the cell lines is detected using a suitable luminometer [Milligan G, Marshall F, Rees S, Trends in Pharmacological Sciences 17, 235-237 (1996)].
Vasopressin V1a Receptor Cell Lines:
On the day before the assay, the cells are plated out in culture medium (DMEM/F12, 2% FCS, 2 mM glutamine, 10 mM HEPES, 5 μg/ml coelenterazine) in 384-well microtiter plates and kept in a cell incubator (96% humidity, 5% v/v CO2, 37° C.). On the day of the assay, test compounds in various concentrations are placed for 10 minutes in the wells of the microtiter plate before the agonist [Arg^8]-vasopressin at EC50 concentration is added. The resulting light signal is measured immediately in a luminometer.
(§3) Table 1A below lists individual IC50 values for the compounds of the invention (including racemic mixtures as well as separated enantiomers) that were obtained from cell lines transfected with the human V1a or V2 receptor: […]

human V2 receptor = target: T2, human V2 receptor (Homo sapiens, UniProt P30518); experiment: Cellular in vitro assay for determining vasopressin receptor activity, V2 receptor cell line (CRE-luciferase); type: cell-based; details: CHO cell line transfected with the human V2 receptor; [Arg8]-vasopressin at EC50 concentration; read-out: IC50 hV2
T2 construct: expressed in transfected cells; host or cells: CHO K1 (ATCC) expressing firefly luciferase under a CRE-responsive promoter
T2 sequence (P30518 whole entry): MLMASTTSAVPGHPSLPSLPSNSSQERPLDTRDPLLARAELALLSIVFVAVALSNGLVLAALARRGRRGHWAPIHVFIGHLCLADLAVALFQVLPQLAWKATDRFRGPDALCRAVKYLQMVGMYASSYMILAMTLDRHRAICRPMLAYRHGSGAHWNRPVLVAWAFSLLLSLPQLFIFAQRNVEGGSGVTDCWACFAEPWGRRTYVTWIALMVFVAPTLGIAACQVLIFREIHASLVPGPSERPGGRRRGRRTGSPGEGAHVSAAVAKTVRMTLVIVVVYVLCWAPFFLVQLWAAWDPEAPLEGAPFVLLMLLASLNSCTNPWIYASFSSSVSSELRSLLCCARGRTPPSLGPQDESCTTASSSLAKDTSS
Protocol: as §1, §2
Vasopressin V2 Receptor Cell Lines:
On the day before the assay, the cells are plated out in culture medium (DMEM/F12, 2% FCS, 2 mM glutamine, 10 mM HEPES) in 384-well microtiter plates and kept in a cell incubator (96% humidity, 5% v/v CO2, 37° C.). On the day of the assay, test compounds in various concentrations and the agonist [Arg^8]-vasopressin at EC50 concentration are added together to the wells, and plates are incubated for 3 hours in a cell incubator. Upon addition of the cell lysis reagent Triton™ and the substrate luciferin, luminescence of firefly luciferase is measured in a luminometer.
as §3

Row | SMILES | IC50 (human V1a receptor) [nM] | ratio IC50 hV2/hV1a (human V1a receptor) | IC50 (human V2 receptor) [nM]
1 | CCC(O)c1nc(Cn2nc(-c3ccc(Cl)cc3)n(C[C@H](O)C(F)(F)F)c2=O)nn1-c1ccccc1Cl (mixture of isomers) [Example 4, 5-(4-Chlorophenyl)-2-{[1-(2-chlorophenyl)-5-(1-hydroxypropyl)-1H-1,2,4-triazol-3-yl]methyl}-4-[(2S)-3,3,3-trifluoro-2-hydroxypropyl]-2,4-dihydro-3H-1,2,4-triazol-3-one] | 0.7 | 6.7 | 4.7
2 | CC(C)C(O)c1nc(Cn2nc(-c3ccc(Cl)cc3)n(C[C@H](O)C(F)(F)F)c2=O)nn1-c1ccccc1Cl (mixture of isomers) [Example 7, 5-(4-Chlorophenyl)-2-{[1-(2-chlorophenyl)-5-(1-hydroxy-2-methylpropyl)-1H-1,2,4-triazol-3-yl]methyl}-4-[(2S)-3,3,3-trifluoro-2-hydroxypropyl]-2,4-dihydro-3H-1,2,4-triazol-3-one] | 0.8 | 6.4 | 5.1
3 | O=c1n(Cc2nc(C(O)C(F)(F)F)n(-c3cccc(Cl)c3)n2)nc(-c2ccc(Cl)cc2)n1C[C@H](O)C(F)(F)F (mixture of isomers) [Example 10, 5-(4-Chlorophenyl)-2-{[1-(3-chlorophenyl)-5-(2,2,2-trifluoro-1-hydroxyethyl)-1H-1,2,4-triazol-3-yl]methyl}-4-[(2S)-3,3,3-trifluoro-2-hydroxypropyl]-2,4-dihydro-3H-1,2,4-triazol-3-one] | 13.5 | 0.2 | 2.1
4 | CC(O)(C(=O)O)c1nc(Cn2nc(-c3ccc(Cl)cc3)n(C[C@H](O)C(F)(F)F)c2=O)nn1-c1ccccc1Cl (mixture of isomers) [Example 14, 2-[1-(2-Chlorophenyl)-3-({3-(4-chlorophenyl)-5-oxo-4-[(2S)-3,3,3-trifluoro-2-hydroxypropyl]-4,5-dihydro-1H-1,2,4-triazol-1-yl}methyl)-1H-1,2,4-triazol-5-yl]-2-hydroxypropanoic acid] | 16.5 | 4.6 | 76
5 | CCC(O)c1nc(Cn2nc(-c3ccc(Cl)cc3)n(C[C@H](O)C(F)(F)F)c2=O)nn1-c1ccccc1Cl (single isomer, unassigned) [Example 5] | 1.6 | 2.6 | 4.2
6 | CCC(O)c1nc(Cn2nc(-c3ccc(Cl)cc3)n(C[C@H](O)C(F)(F)F)c2=O)nn1-c1ccccc1Cl (single isomer, unassigned) [Example 6] | 0.7 | 12.0 | 8.4
7 | CC(C)C(O)c1nc(Cn2nc(-c3ccc(Cl)cc3)n(C[C@H](O)C(F)(F)F)c2=O)nn1-c1ccccc1Cl (single isomer, unassigned) [Example 8] | 0.6 | 3.7 | 2.2
8 | CC(C)C(O)c1nc(Cn2nc(-c3ccc(Cl)cc3)n(C[C@H](O)C(F)(F)F)c2=O)nn1-c1ccccc1Cl (single isomer, unassigned) [Example 9] | 0.9 | 28.2 | 25.4
9 | O=c1n(Cc2nc(C(O)C(F)(F)F)n(-c3cccc(Cl)c3)n2)nc(-c2ccc(Cl)cc2)n1C[C@H](O)C(F)(F)F (single isomer, unassigned) [Example 11] | 14.9 | 0.1 | 1.8
10 | O=c1n(Cc2nc(C(O)C(F)(F)F)n(-c3cccc(Cl)c3)n2)nc(-c2ccc(Cl)cc2)n1C[C@H](O)C(F)(F)F (single isomer, unassigned) [Example 12] | 2.2 | 15.8 | 34.8
11 | CC(O)(C(=O)O)c1nc(Cn2nc(-c3ccc(Cl)cc3)n(C[C@H](O)C(F)(F)F)c2=O)nn1-c1ccccc1Cl (single isomer, unassigned) [Example 15] | 3.5 | 7.6 | 26.5
12 | CC(O)(C(=O)O)c1nc(Cn2nc(-c3ccc(Cl)cc3)n(C[C@H](O)C(F)(F)F)c2=O)nn1-c1ccccc1Cl (single isomer, unassigned) [Example 16] | 5.5 | 45.8 | 252
13 | CC(C)(O)c1nc(Cn2nc(-c3ccc(Cl)cc3)n(C[C@H](O)C(F)(F)F)c2=O)nn1-c1cccc(F)c1 [Example 1, 5-(4-Chlorophenyl)-2-{[1-(3-fluorophenyl)-5-(2-hydroxypropan-2-yl)-1H-1,2,4-triazol-3-yl]methyl}-4-[(2S)-3,3,3-trifluoro-2-hydroxypropyl]-2,4-dihydro-3H-1,2,4-triazol-3-one] | 6.6 | 3.8 | 24.9
14 | CC(C)(O)c1nc(Cn2nc(-c3ccc(Cl)cc3)n(C[C@H](O)C(F)(F)F)c2=O)nn1-c1cccc(Cl)c1 [Example 2, 5-(4-Chlorophenyl)-2-{[1-(3-chlorophenyl)-5-(2-hydroxypropan-2-yl)-1H-1,2,4-triazol-3-yl]methyl}-4-[(2S)-3,3,3-trifluoro-2-hydroxypropyl]-2,4-dihydro-3H-1,2,4-triazol-3-one] | 21.9 | 0.2 | 3.3
15 | COc1ccccc1-n1nc(Cn2nc(-c3ccc(Cl)cc3)n(C[C@H](O)C(F)(F)F)c2=O)nc1C(C)(C)O [Example 3, 5-(4-Chlorophenyl)-2-{[5-(2-hydroxypropan-2-yl)-1-(2-methoxyphenyl)-1H-1,2,4-triazol-3-yl]methyl}-4-[(2S)-3,3,3-trifluoro-2-hydroxypropyl]-2,4-dihydro-3H-1,2,4-triazol-3-one] | 0.8 | 2.4 | 1.9
16 | CC(C)(O)c1nc(Cn2nc(-c3ccc(Cl)cc3)n(C[C@H](O)C(F)(F)F)c2=O)nn1-c1ccccc1Cl [Example 13, 5-(4-Chlorophenyl)-2-{[1-(2-chlorophenyl)-5-(2-hydroxypropan-2-yl)-1H-1,2,4-triazol-3-yl]methyl}-4-[(2S)-3,3,3-trifluoro-2-hydroxypropyl]-2,4-dihydro-3H-1,2,4-triazol-3-one] | 2.1 | 3.3 | 6.9
